Literature values in PMC2810551 (Chemistry & biology, 2009).

System: CD4+ T cells expressing the MBP Ac1-11 specific Vα2.3/Vβ8.2 TCR
Details: immunization with MBP Ac1-11; B10.PL mice; ref [6]

In the case of Ac-ASQKRPSQRSK [MBP Ac1-11], the “activation and expansion of specific CD4+ T cells” value is listed as “results in activation and expansion of CD4+ T cells expressing the MBP Ac1-11 specific Vα2.3/Vβ8.2 TCR”.
